Assay [1] addresses T1, RNA demethylase ALKBH5 (Homo sapiens, UniProt Q6P6C2). In words: Inhibition of ALKBH5 (66 to 292 residues)(unknown origin) expressed in Escherichia coli BL21(DE3) using 5'-ATTGTCA(m6A)CAGCAGA-FAM-3' as substrate incubated for 30 mins by FP assay.
Target sequence in this assay (Q6P6C2 whole entry, the tested form may be a part): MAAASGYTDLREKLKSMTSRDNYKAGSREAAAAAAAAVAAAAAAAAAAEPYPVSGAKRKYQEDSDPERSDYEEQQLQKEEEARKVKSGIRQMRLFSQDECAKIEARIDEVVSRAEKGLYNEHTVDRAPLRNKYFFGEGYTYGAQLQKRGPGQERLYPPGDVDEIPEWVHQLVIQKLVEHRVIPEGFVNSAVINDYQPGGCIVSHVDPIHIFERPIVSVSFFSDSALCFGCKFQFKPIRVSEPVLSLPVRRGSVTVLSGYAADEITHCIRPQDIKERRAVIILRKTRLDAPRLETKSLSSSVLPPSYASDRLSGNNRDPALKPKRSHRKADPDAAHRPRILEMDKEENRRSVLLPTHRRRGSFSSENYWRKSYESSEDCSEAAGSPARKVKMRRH
For assay [2], the target named is Alpha-ketoglutarate-dependent dioxygenase FTO (Homo sapiens, UniProt Q9C0B1). Briefly: Inhibition of FTO (32 to 505 residues)(unknown origin) expressed in Escherichia coli BL21(DE3) by FP assay.
For assay [3], the target named is T1, RNA demethylase ALKBH5. Briefly: Inhibition of ALKBH5 (66 to 292 residues)(unknown origin) expressed in Escherichia coli BL21(DE3) using 5'-ATTGTCA(m6A)CAGCAGA-FAM-3' as substrate incubated for 30 mins in presence of 200 uM of 2-OG by FP based competitive binding assay.
Target sequence in this assay (Q6P6C2 whole entry, the tested form may be a part): as above
Assay [4] has as its target T1, RNA demethylase ALKBH5. Briefly: Inhibition of ALKBH5 (66 to 292 residues)(unknown origin) expressed in Escherichia coli BL21(DE3) using 5'-ATTGTCA(m6A)CAGCAGA-FAM-3' as substrate incubated for 30 mins in presence of 20 uM of 2-OG by FP based competitive binding assay.
Target sequence in this assay (Q6P6C2 whole entry, the tested form may be a part): as above
Assay [5] concerns the target T1, RNA demethylase ALKBH5. In words: Inhibition of ALKBH5 (66 to 292 residues)(unknown origin) expressed in Escherichia coli BL21(DE3) using 5'-ATTGTCA(m6A)CAGCAGA-FAM-3' as substrate incubated for 30 mins in presence of 2 uM of 2-OG by FP based competitive binding assay.
Target sequence in this assay (Q6P6C2 whole entry, the tested form may be a part): as above
Assay [6] has as its target T1, RNA demethylase ALKBH5. In words: Inhibition of ALKBH5 (66 to 292 residues)(unknown origin) expressed in Escherichia coli BL21(DE3) using 5'-ATTGTCA(m6A)CAGCAGA-FAM-3' as substrate incubated for 30 mins in presence of 0.2 uM of 2-OG by FP based competitive binding assay.
Target sequence in this assay (Q6P6C2 whole entry, the tested form may be a part): as above
Assay [7] deals with T1, RNA demethylase ALKBH5. Briefly: Binding affinity to ALKBH5 (66 to 292 residues)(unknown origin) expressed in Escherichia coli BL21(DE3) assessed as increase in melting temperature incubated for 30 mins by thermal shift assay.
Target sequence in this assay (Q6P6C2 2-394 limits assumed): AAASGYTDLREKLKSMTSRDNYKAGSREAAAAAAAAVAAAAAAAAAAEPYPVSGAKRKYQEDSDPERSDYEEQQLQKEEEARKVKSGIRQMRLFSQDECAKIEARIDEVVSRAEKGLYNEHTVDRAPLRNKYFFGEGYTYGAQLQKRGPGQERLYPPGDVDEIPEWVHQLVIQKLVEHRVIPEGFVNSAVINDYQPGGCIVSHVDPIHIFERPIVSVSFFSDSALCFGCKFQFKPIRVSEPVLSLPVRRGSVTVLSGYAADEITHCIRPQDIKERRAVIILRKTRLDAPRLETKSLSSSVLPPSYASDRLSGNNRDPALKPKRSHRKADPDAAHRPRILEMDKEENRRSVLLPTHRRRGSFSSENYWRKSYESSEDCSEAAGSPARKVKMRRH

Alpha-ketoglutarate-dependent dioxygenase FTO, sequence (Q9C0B1 whole entry, the tested form may be a part): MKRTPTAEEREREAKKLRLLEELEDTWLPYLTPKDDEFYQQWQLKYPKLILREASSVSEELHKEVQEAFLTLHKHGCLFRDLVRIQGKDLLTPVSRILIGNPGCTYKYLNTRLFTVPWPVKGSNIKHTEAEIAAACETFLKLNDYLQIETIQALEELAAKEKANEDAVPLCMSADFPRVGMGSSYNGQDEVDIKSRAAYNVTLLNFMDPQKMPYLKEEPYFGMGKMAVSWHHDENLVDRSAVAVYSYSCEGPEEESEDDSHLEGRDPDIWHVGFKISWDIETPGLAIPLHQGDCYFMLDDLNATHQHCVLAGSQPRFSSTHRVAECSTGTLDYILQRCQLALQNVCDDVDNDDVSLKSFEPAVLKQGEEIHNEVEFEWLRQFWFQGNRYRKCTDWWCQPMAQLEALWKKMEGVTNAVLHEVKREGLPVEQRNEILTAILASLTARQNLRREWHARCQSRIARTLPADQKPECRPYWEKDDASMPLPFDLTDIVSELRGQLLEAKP

As a reminder, the IC50 is the concentration needed to halve the response being measured. As to `O=C(c1cnc2cc(-c3ccccc3Cl)nn2c1)c1cc([N+](=O)[O-])ccc1O`, the IC50 is 102 µM at RNA demethylase ALKBH5 [1] and above 200 µM in assay [2].

For the compound `O=C(c1cnc2cc(-c3ccc(O)cc3)nn2c1)c1cc([N+](=O)[O-])ccc1O`, the IC50 at RNA demethylase ALKBH5 [1] was 46.4 µM; in assay [2], 16.6 µM.

Consider `O=C(c1cnc2cc(-c3ccccc3)nn2c1)c1cc([N+](=O)[O-])ccc1O`, for which 45.1 µM corresponded to half-maximal inhibition against RNA demethylase ALKBH5 [1] (IC50).

Consider `O=C(OCc1ccccc1)c1ccc(-c2cc3ncc(C(=O)c4cc([N+](=O)[O-])ccc4O)cn3n2)cc1`, for which the IC50 on RNA demethylase ALKBH5 [1] was 7.88 µM; in assay [2], above 200 µM.

Consider `COC(=O)c1ccc(-c2cc3ncc(C(=O)c4cc([N+](=O)[O-])ccc4O)cn3n2)cc1`, for which the values for the IC50 (against RNA demethylase ALKBH5 [1]; in assay [2]) were 9.12 µM and above 200 µM, respectively.

For `Cc1ccc(-c2cc3ncc(C(=O)c4cc([N+](=O)[O-])ccc4O)cn3n2)cc1`, the IC50 (at RNA demethylase ALKBH5 [1]; in assay [2]) was above 200 µM throughout.

As for `O=C(O)c1ccc(-c2cc3ncc(C(=O)c4cc([N+](=O)[O-])ccc4O)cn3n2)cc1`, the IC50 was found to be 56.5 µM against RNA demethylase ALKBH5 [1] and 5.98 µM in assay [2].

Regarding `O=C(O)c1ccnc(C(=O)NS(=O)(=O)c2ccccc2)c1`, the IC50 is 67.7 µM against RNA demethylase ALKBH5 [1]; 269 µM on RNA demethylase ALKBH5 [3]; 211 µM on RNA demethylase ALKBH5 [4]; 135 µM on RNA demethylase ALKBH5 [5]; 87.6 µM on RNA demethylase ALKBH5 [6].

`O=C(c1cnc2cc(-c3ccc(Cl)cc3)nn2c1)c1cccc([N+](=O)[O-])c1O`: the half-inhibitory concentration (IC50) on RNA demethylase ALKBH5 [1] is 62.7 µM; in assay [2] it was above 200 µM.

Consider `O=C(c1cnc2cc(-c3ccc(Cl)cc3)nn2c1)c1cc(C(F)(F)F)ccc1O`, for which the IC50 (on RNA demethylase ALKBH5 [1]; in assay [2]) was above 200 µM throughout.

For the compound `O=C(c1cnc2cc(-c3ccc(Cl)cc3)nn2c1)c1ccccc1O`, the half-inhibitory concentration (IC50) (at RNA demethylase ALKBH5 [1]; in assay [2]) was above 200 µM in each case.

Turning to `O=C(OCc1ccc(C(F)(F)F)cc1)c1ccc(-c2cc3ncc(C(=O)c4cc([N+](=O)[O-])ccc4O)cn3n2)cc1`, the IC50 was 4.64 µM at RNA demethylase ALKBH5 [1] and above 200 µM in assay [2].

With `Cc1ccc(COC(=O)c2ccc(-c3cc4ncc(C(=O)c5cc([N+](=O)[O-])ccc5O)cn4n3)cc2)cc1`, the values for the IC50 (against RNA demethylase ALKBH5 [1]; in assay [2]) were 41 µM and above 200 µM, respectively.

`O=C(c1cnc2cc(-c3ccc(C(F)(F)F)cc3)nn2c1)c1cc([N+](=O)[O-])ccc1O`: the IC50 was 23.3 µM at RNA demethylase ALKBH5 [1] and above 200 µM in assay [2].

Turning to `O=C(c1cnc2cc(-c3cccc(Cl)c3)nn2c1)c1cc([N+](=O)[O-])ccc1O`, the IC50 is 24.6 µM on RNA demethylase ALKBH5 [1] and above 200 µM in assay [2].

As to `O=C(c1cnc2cc(-c3ccc(Cl)cc3)nn2c1)c1c(O)ccc([N+](=O)[O-])c1O`, the IC50 at RNA demethylase ALKBH5 [1] is 14.4 µM; in assay [2], 8.39 µM.

The term ΔTm denotes the change in melting temperature against a reference sample. Take `O=C(c1cnc2cc(-c3ccc(Cl)cc3)nn2c1)c1cc([N+](=O)[O-])ccc1O`: the IC50 was 15.6 µM at RNA demethylase ALKBH5 [1] and above 200 µM in assay [2]. Besides, the ΔTm on RNA demethylase ALKBH5 [7] was above 1 °C.

In the case of `O=C(O)c1ccc(O)c(C(=O)c2cnc3cc(-c4ccc(Cl)cc4)nn3c2)c1`, the values for the IC50 (at RNA demethylase ALKBH5 [1]; in assay [2]) were 141 µM and above 200 µM, respectively.

Regarding `COc1ccc([N+](=O)[O-])cc1C(=O)c1cnc2cc(-c3ccc(Cl)cc3)nn2c1`, the IC50 (at RNA demethylase ALKBH5 [1]; in assay [2]) was above 200 µM throughout.

For `O=C(OCc1ccc(Cl)cc1)c1ccc(-c2cc3ncc(C(=O)c4cc([N+](=O)[O-])ccc4O)cn3n2)cc1`, the IC50 on RNA demethylase ALKBH5 [1] is 10.7 µM; in assay [2], above 200 µM.

The values are drawn from ChEMBL document CHEMBL5375956, “Discovery of Pyrazolo[1,5-a]pyrimidine Derivative as a Novel and Selective ALKBH5 Inhibitor for the Treatment of AML” (J Med Chem, 2023).
